US6143780A, “N-arylmethylthioanilide compounds useful for the inhibition of the replication of HIV” (Uniroyal Chemical Company, Inc., priority 1999, dated 2000)
≈ marks a conversion by molar mass, not a printed value. Where “and” joins values, the source holds several entries; their conditions need not be identical. Equal entries are not always repeated. Where two headings read alike, the source gives them in different places.

Assays:
[1] = system: HIV-1 strains containing the 100 Leu→Ile mutation in their RT; settings: cited from earlier work
HIV-1/106-Ala = assay: inhibition of syncytium formation in CEM cells, HIV-1 RT mutant 106-Ala; format: cell-based; settings: Human immunodeficiency virus 1, CCRF-CEM, 96 h, read-out: EC50 106-Ala
From the text: (§1) CEM cells were obtained from the American Tissue Cell Culture Collection (Rockville, Md.) . HIV-1 (IIIB) was originally obtained from the culture supernatant of persistently HIV-1-infected H9 cells and was provided by R. C. Gallo and M. Popovic (National Cancer Institute, National Institutes of Health, Bethesda, Md.).
(§2) The selection and characterization of the HIV-1 RT mutant strains were done as follows: HIV-1/100-Ile ("100-Ile") was selected for resistance against TIBO R82150 as described in Balzarini et al, Virology 192: 246-253 (1993); HIV-1/103-Asn ("103-Asn") was selected for resistance against TIBO R82913 as described in Balzarini et al, Virology 192: 246-253 (1993); HIV-1/106-Ala ("106-Ala") was selected for resistance against nevirapine as described in Balzarini et al, J. Virol. 67: 5353-5359 (1993); HIV-1/Lys-138 ("Lys-138") was selected for resistance against TSAO-m^3T as described in Balzarini et al, Virology 192: 246-253 (1993) and Balzarini et al, Proc. Nat. Acad. Sci. USA 90: 6952-6956 (1993); HIV-1/181-Cys ("181-Cys") was selected for resistance against pyridinone L-697,661 as described in Balzarini et al, Virology 192: 246-253 (1993); and HIV-1/188-His ("188-His") was selected for resistance against HEPT as described in Balzarini et al, Mol. Pharmocol. 44: 694-701 (1993). 188-His was then further converted to HIV-1/188-Leu ("188-Leu") upon further passage in cell culture in the absence of the HEPT. HIV-1/101-Glu ("101-Glu") and HIV-1/190-Glu ("190-Glu") were selected for resistance against the thiocarboxanilide derivative designated as UC38 as described in Balzarini et al, Antiviral Research 27: 219-236 (1995). HIV-1/184-Ile ("184-Ile") was selected for resistance against the combination of 3TC and TSAO-m^3 T as described in Balzarini et al, Molecular Pharm. 49: 882-890 (1996). HIV-1/184-Val ("184-Val") was selected for resistance against 3TC as described in Balzarini et al, Molecular Pharm. 49: 882-890 (1996).
(§3) CEM cells were suspended at ≈300,000 cells per ml of culture medium and infected with approximately 100 CCID50 (CCID50 being the 50% cell culture infective dose) of HIV-1(IIIB) (designated as "WT" in Table 3) or one of the HIV-1 RT mutant strains described above. Then 100 μl of the infected cell suspensions was added to 200 μl microtiter plate wells containing 100 μl of appropriate serial (5-fold) dilutions of the test compounds. The inhibitiory effect of the test compounds on HIV-1 induced syncytium formation in CEM cells was examined microscopically on day 4 post infection. The 50% effective concentration (EC50) was defined as the test compound concentration that inhibits syncytium formation in the HIV-1-infected cell cultures by 50%.

138-Lys = assay: inhibition of syncytium formation in CEM cells, HIV-1 RT mutant 138-Lys; format: cell-based; settings: Human immunodeficiency virus 1, CCRF-CEM, 96 h, read-out: EC50 138-Lys
From the text: as §1, §2, §3

HIV-1 (IIIB) = assay: inhibition of HIV-1(IIIB) (WT) induced syncytium formation in CEM cells; format: cell-based
From the text: as §1, §3

HIV-1/184-Val = assay: inhibition of syncytium formation in CEM cells, HIV-1 RT mutant 184-Val; format: cell-based; settings: Human immunodeficiency virus 1, CCRF-CEM, 96 h, read-out: EC50 184-Val
From the text: as §1, §2, §3

HIV-1/181-Cys = assay: inhibition of syncytium formation in CEM cells, HIV-1 RT mutant 181-Cys; format: cell-based; settings: Human immunodeficiency virus 1, CCRF-CEM, 96 h, read-out: EC50 181-Cys
From the text: as §1, §2, §3

HIV-1/190-Glu = assay: inhibition of syncytium formation in CEM cells, HIV-1 RT mutant 190-Glu; format: cell-based; settings: Human immunodeficiency virus 1, CCRF-CEM, 96 h, read-out: EC50 190-Glu
From the text: as §1, §2, §3

HIV-1/188-His = assay: inhibition of syncytium formation in CEM cells, HIV-1 RT mutant 188-His; format: cell-based; settings: Human immunodeficiency virus 1, CCRF-CEM, 96 h, read-out: EC50 188-His
From the text: as §1, §2, §3

HIV-1/188-Leu = assay: inhibition of syncytium formation in CEM cells, HIV-1 RT mutant 188-Leu; format: cell-based; settings: Human immunodeficiency virus 1, CCRF-CEM, 96 h, read-out: EC50 188-Leu
From the text: as §1, §2, §3

HIV-1/184-Ile = assay: inhibition of syncytium formation in CEM cells, HIV-1 RT mutant 184-Ile; format: cell-based; settings: Human immunodeficiency virus 1, CCRF-CEM, 96 h, read-out: EC50 184-IIe
From the text: as §1, §2, §3

HIV-1/101-Glu = assay: inhibition of syncytium formation in CEM cells, HIV-1 RT mutant 101-Glu; format: cell-based; settings: Human immunodeficiency virus 1, CCRF-CEM, 96 h, read-out: EC50 101-Glu
From the text: as §1, §2, §3

103-Ala = assay: inhibition of syncytium formation in CEM cells, HIV-1 RT mutant 103-Ala; format: cell-based; settings: Human immunodeficiency virus 1, CCRF-CEM, 96 h, read-out: EC50 103-Ala
HIV-1/100-Ile = assay: inhibition of syncytium formation in CEM cells, HIV-1 RT mutant 100-Ile; format: cell-based; settings: Human immunodeficiency virus 1, CCRF-CEM, 96 h, read-out: EC50 100-Ile
From the text: as §1, §2, §3

[2] = system: 181 Tyr→Cys mutation in the RT of HIV-1 strains; settings: cited from earlier work
[3] = Human immunodeficiency virus 1, IIIB, CCRF-CEM, 96 h, Table 3, HIV-1(IIIB), day 4 post infection, read-out: EC50 WT
[4] = Table 2, day 4 post infection, replicate values, read-out: EC50, Activity Against HIV-1 (IIIB)

Structure (SMILES) | resistance of 100 Leu→Ile mutant strains [1] | EC50 (HIV-1/106-Ala) [µg/mL] | EC50 (138-Lys) [µg/mL] | EC50 (HIV-1 (IIIB); [3]) [µg/mL] | EC50 (HIV-1 (IIIB); [4]) | EC50 (HIV-1/184-Val) [µg/mL] | EC50 (HIV-1/181-Cys) [µg/mL] | EC50 (HIV-1/190-Glu) [µg/mL] | EC50 (HIV-1/188-His) [µg/mL] | EC50 (HIV-1/188-Leu) [µg/mL] | EC50 (HIV-1/184-Ile) [µg/mL] | EC50 (HIV-1/101-Glu) [µg/mL] | EC50 (103-Ala) [µg/mL] | EC50 (HIV-1/100-Ile) [µg/mL] | EC50 (HIV-1 (IIIB); Human immunodeficiency virus 1, IIIB, CCRF-CEM, 96 h, Table 2, day 4 post infection, replicate values, read-out: EC50, Activity Against HIV-1 (IIIB)) [nM] | resistance of 181 Tyr→Cys mutant strains [2]
CC(C)=CCN1Cc2cccc3[nH]c(=S)n(c23)CC1C (single isomer, unassigned) [Compound R82150] | resistant |  |  |  |  |  |  |  |  |  |  |  |  |  |  | 
CC(C)=CCN1Cc2cc(Cl)cc3[nH]c(=S)n(c23)CC1C (single isomer, unassigned) [TIBO R82913] | resistant |  |  |  |  |  |  |  |  |  |  |  |  |  |  | 
CCCc1ccccc1OCc1cc(NC(=S)c2ccoc2C)ccc1Cl [Compound 43] |  | > 2 | 0.31 | 0.03 | 42.5 nM and 118 nM | 0.04 | > 0.4 | > 2 | 0.65 | > 2 | 0.13 | 1.35 | > 2 | 1.14 |  | 
CCc1ccccc1OCc1cc(NC(=S)c2ccoc2C)ccc1Cl [Compound 44] |  | 1.1 | 0.16 | 0.0065 | 30.7 nM and 18 nM and 95.4 nM | 0.018 | > 2 | > 2 | 0.25 | 0.35 | 0.04 | 0.65 | > 2 | 0.41 |  | 
Cc1occc1C(=S)Nc1ccc(Cl)c(COc2c(F)ccc(F)c2F)c1 [Compound 45] |  | 0.025 | 0.012 | 0.0017 |  | 0.0027 | 0.065 | > 2 | 0.85 | 1.5 | 0.005 | 0.04 | 0.4 (≈ 0.971 µM) | 0.11 |  | 
Cc1occc1C(=S)Nc1ccc(Cl)c(COc2ccccc2C(F)(F)F)c1 [Compound 46] |  | 0.47 | 0.03 | 0.0041 | 39.3 nM and 54.8 nM and 9.14 nM | 0.0093 | 0.5 | > 2 | 0.16 | 0.19 | 0.018 | 0.18 | 0.55 (≈ 1.29 µM) | 0.11 |  | 
Cc1occc1C(=S)Nc1ccc(Cl)c(COc2ccc(F)cc2Cl)c1 [Compound 47] |  | > 2 | 0.64 | 0.018 | 516 nM | 0.05 | 1 | > 2 | 2 | > 2 | 0.12 | 1.47 | > 2 | 0.65 | 1030 | 
Cc1ccnc2c1NC(=O)c1cccnc1N2C1CC1 [nevirapine] |  |  |  |  |  |  |  |  |  |  |  |  |  |  |  | resistant
